Test [1] addresses 5-hydroxytryptamine receptor 1D (Homo sapiens, UniProt P28221). The test can be described thus: Displacement of [3H]GR125743 from recombinant human 5-HT1D receptor expressed in HEK cells by scintillation counting. The class given is cell-based, HEK293. A general note: Displacement assays read how much labelled ligand stays bound in the presence of the test substance.
The target of test [2] is 5-hydroxytryptamine receptor 1B (Homo sapiens, UniProt P28222). Briefly: Displacement of [3H]carboxytryptamine from recombinant human 5-HT1B receptor expressed in HEK cells by scintillation counting. The class given is cell-based, HEK293.
5-hydroxytryptamine receptor 1B, sequence (P28222 whole entry): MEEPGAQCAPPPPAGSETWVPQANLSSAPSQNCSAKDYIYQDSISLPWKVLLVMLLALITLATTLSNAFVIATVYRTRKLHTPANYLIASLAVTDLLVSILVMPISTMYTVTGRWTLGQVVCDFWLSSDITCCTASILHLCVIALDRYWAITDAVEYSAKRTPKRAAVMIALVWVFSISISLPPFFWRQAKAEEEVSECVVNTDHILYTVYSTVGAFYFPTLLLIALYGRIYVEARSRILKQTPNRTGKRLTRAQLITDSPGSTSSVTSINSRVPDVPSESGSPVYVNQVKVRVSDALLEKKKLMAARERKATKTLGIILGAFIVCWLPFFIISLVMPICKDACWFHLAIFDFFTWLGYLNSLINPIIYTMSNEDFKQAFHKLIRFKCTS

5-hydroxytryptamine receptor 1D, sequence (P28221 whole entry): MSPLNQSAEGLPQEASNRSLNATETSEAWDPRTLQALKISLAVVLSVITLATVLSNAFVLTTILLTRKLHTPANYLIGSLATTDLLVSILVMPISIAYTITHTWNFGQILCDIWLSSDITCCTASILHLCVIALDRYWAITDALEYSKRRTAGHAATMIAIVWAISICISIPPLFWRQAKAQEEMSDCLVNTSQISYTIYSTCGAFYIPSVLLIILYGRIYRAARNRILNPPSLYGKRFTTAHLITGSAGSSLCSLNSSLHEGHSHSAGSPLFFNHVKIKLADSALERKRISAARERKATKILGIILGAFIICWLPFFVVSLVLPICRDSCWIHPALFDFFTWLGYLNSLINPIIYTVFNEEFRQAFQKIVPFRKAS

Usually Ki stands for the dissociation constant of the complex between target and ligand, obtained from inhibition or displacement. Regarding `COc1ccc(NC(=O)c2ccc3c(c2)N(C)C(=O)CN3c2ccc(Cl)c(Cl)c2)cc1N1CCN(C)CC1`, the Ki in test [1] stood at 44 nM; in test [2], 120 nM.

Values taken from ChEMBL document CHEMBL1909604, “A novel potential therapeutic avenue for autism: design, synthesis and pharmacophore generation of SSRIs with dual action” (Bioorg Med Chem Lett, 2011).
